{"source": "patent US5739158A", "about": "“Nitrogen-containing cyclohetero cycloalkylaminoaryl derivatives for CNS disorders” (The United States of America as represented by the …, priority 1992, dated 1998)", "key": {"NMDA receptor": {"test_system": "NMDA receptor", "details": "C. Carter et al, 1988; cited from earlier work"}, "sigma receptor": {"target": "T1, sigma receptor (Rattus norvegicus, UniProt Q9R0C9)", "T1 construct": "Brains from male Sprague-Dawley rats were homogenized; from tissue; host or cells: rat brain crude membranes (male Sprague-Dawley)", "T1 sequence (Q9R0C9 whole entry)": "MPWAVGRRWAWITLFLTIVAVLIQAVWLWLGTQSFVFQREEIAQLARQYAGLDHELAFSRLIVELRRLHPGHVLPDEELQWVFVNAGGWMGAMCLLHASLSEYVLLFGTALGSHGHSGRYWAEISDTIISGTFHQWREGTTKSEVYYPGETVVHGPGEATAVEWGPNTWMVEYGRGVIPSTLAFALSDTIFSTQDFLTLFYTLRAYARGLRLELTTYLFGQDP", "test": "Radioreceptor assay in rat brain homogenate, displacement of [3H]-(+)-3-PPP", "type": "binding", "details": "for Ki: rat brain membranes, 2 nM [3H]-(+)-3-PPP, 1 hr, room temperature, units ± SEM, read-out: Ki apparent", "description": "Acad. Sci., 83, 8784-8788, 1986] to determine the relative potency of the compounds interacting with the sigma receptor. To determine the effects of the compounds in a sigma receptor assay, crude membrane preparations were prepared as follows. Brains from male Sprague-Dawley rats were homogenized in 10 volumes (wt/vol) of 0.32M sucrose, using a Polytron grinder. The homogenate was centrifuged at 900×G for 10 minutes at 4° C. The supernatant was collected and centrifuged at 22,000×g for 20 minutes at 4° C. The pellet was resuspended in 10 volumes of 50 mM Tris/HCl buffer (pH 7.4) and centrifuged at 22,000×g for 20 minutes at 4° C. The pellet was resuspended in 5 mM Tris/HCl buffer (pH 7.4) to give a final concentration of 250 mg/ml of the crude material. Incubation tubes were prepared in triplicate and contained 0.1 ml of tissue suspension, 2 nM of [^3 H]-(+)-1-propyl-3-(3-hydroxyphenyl)piperidine {[^3 H]-3-(+)-PPP}, and varying concentrations of the displacing ligand (0.1-1000 nM) in a final volume of 0.5 ml. After a 1 hr incubation at room temperature, the contents of the test tubes were filtered through GS filter paper which had been presoaked for at least 2 hours in 0.05% polyethyleneamine. The test tubes were rinsed three times with Tris/HCl buffer. Radioactivity on the filters was determined and […] were calculated from inhibition curves using the method of Cheng and Prusoff [Biochem. Pharmacol., 22, 3099-3108, 1973]."}, "sigma receptors": {"target": "T2, sigma receptors (Cavia porcellus, UniProt Q60492)", "T2 construct": "crude synaptosomal (P2) membrane fraction of guinea pig brain for sigma receptors; tissue Pel-Freeze, Rogers, Ak; host or cells: guinea pig brain minus cerebellum, crude synaptosomal (P2) membranes", "T2 sequence (Q60492 whole entry)": "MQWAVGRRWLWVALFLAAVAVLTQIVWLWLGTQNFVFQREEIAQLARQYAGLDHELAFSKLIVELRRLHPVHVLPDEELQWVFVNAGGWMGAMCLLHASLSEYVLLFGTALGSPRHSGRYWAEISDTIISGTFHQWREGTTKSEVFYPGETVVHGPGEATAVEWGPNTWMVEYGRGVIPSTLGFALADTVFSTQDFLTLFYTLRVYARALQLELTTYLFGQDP", "test": "Radioreceptor assay in guinea pig brain homogenate (P2 membranes), [3H]-(+)-3-PPP", "type": "binding"}, "substantia nigra": {"test_system": "substantia nigra", "test": "Circling behavior assay, intranigral microinjection", "type": "in vivo, rat", "details": "for Net Turns (individual rat): individual subjects", "description": "In order to assess the utility of compounds of the invention in treatment of Parkinsonism, the ability of the compound to stimulate movement following microinjections in the substantia nigra was assessed. Parkinson's disease results from the degeneration of dopamine-secreting neurons in the substantia nigra resulting in a reduced ability to generate movement. […] Such a stimulatory action would predict increased ability to generate voluntary movement in Parkinson's patients showing decreased functionality of this brain area. Current treatments of Parkinson's disease also stimulate this brain area, but show significant side effects that may not be present in compounds of the invention. […] It is expected, therefore, that compounds of the invention would have clinical utility in the treatment of Parkinson's disease and other disorders in which there is a paucity of movement.\nThree to seven days before behavioral testing, each animal (245-350 g, N=57) was anesthetized with 50 mg/kg sodium pentobarbital and mounted in a Narishige stereotaxic apparatus. A guide cannula, constructed from 24 gauge thinwall stainless steel tubing, was implanted with its tip 4.0 mm above the left substantia nigra pars reticulata (coordinates: 3.2 mm anterior; 2.2 mm lateral; 4.7 mm ventral), from lambda and the skull surface. Cannulae were secured with stainless steel screws and dental acrylic. Stainless steel stylers kept the cannulae sealed except during drug infusion. All drugs were prepared on the day of testing. Animals were gently restrained and the drugs were administered in a volume of 0.5 ul over 72 seconds through a 31 gauge microneedle that was constructed to extend 4.0 mm beyond the tips of the guide cannulae. […] Animals received a single injection of saline (n=6), 1.5 nmol (n=5), 3.7 nmol (n=6), 9.3 nmol (n=7 or 14.9 nmol (n=5) in 0.5 ul 0.9% NaCl. Following injection, each animal was fitted with a harness which was connected to an optical position transducer interfaced to a compouter that derived the number and direction of half turns for 30 min. Each rat received a single injection of the test drug to minimize tissue damage. Rats were sacrificed by an overdose of sodium pentobarbital and perfused intracardially with 10% formalin. Brains were fixed in a 30% sucrose-formalin solution and coronal sections (40 um) were taken throughout the extent of the injection site. The sections were stained with cresyl violet and examined under a microscope to localize injection sites. Only subjects with histologically confirmed injection sites were used in the data analyses. For the studies of circling behavior, the number of net (contalateral-isolateral) rotations were computed for each rat and subjected to analysis of variance. […] Results showing contralateral circling behavior produced by intranigral microinjections of various doses of Compound #1 are reported in Table IV and illustrated in FIG. 1.\nIndividual subjects are shown along with the average and standard deviation of the effect."}}, "note": "Where “and” joins values, the source holds several entries; their conditions need not be identical. Equal values may be shown once. Entries after “also recorded” stand apart in the source; their conditions may differ. Read-outs that look alike come from different tables or passages of the source."}
{"compound": "1-(4-chlorophenyl)-2-[1-(4-fluorophenyl)piperidinyl]ethanol", "values": [{"measurement": "NMDA receptor antagonism (in words)", "setting": "NMDA receptor", "value": "non-competitive NMDA receptor antagonists"}]}
{"compound": "CN(CCc1ccc(Cl)c(Cl)c1)[C@@H]1CCCC[C@@H]1N1CCCC1", "note": "(racemic) [Compound No. 1, (±)-cis-N-[2-(3,4-dichlorophenyl)ethyl]-N-methyl-2-(1-pyrrolidinyl)cyclohexylamine]", "values": [{"measurement": "Binding to sigma receptors (in words)", "setting": "sigma receptor", "value": "binds to sigma receptors"}, {"measurement": "Ki", "setting": "sigma receptor", "value": "230 ± 70", "unit": "nM"}, {"measurement": "Ki", "setting": "sigma receptors", "value": "1.8 ± 0.4", "unit": "nM"}, {"measurement": "Net Turns, Average", "setting": "substantia nigra; dose 1.49 nmol, Stan Dev 18.94", "value": "11.00 1/2 contralateral rotations ne"}, {"measurement": "Net Turns (individual rat)", "setting": "substantia nigra; dose 1.49 nmol", "value": "25.00 1/2 contralateral rotations ne and 17.00 1/2 contralateral rotations ne and 5.00 1/2 contralateral rotations ne and 4.00 1/2 contralateral rotations ne and 38.00 1/2 contralateral rotations ne"}, {"measurement": "Net Turns, Average", "setting": "substantia nigra; dose 3.72 nmol, Stan Dev = 7.87", "value": "18.33 1/2 contralateral rotations ne"}, {"measurement": "Net Turns (individual rat)", "setting": "substantia nigra; dose 3.72 nmol", "value": "13.00 1/2 contralateral rotations ne and 23.00 1/2 contralateral rotations ne and 5.00 1/2 contralateral rotations ne and 28.00 1/2 contralateral rotations ne and 25.00 1/2 contralateral rotations ne and 16.00 1/2 contralateral rotations ne"}, {"measurement": "Net Turns, Average", "setting": "substantia nigra; dose 9.3 nmol, Stan Dev 21.46", "value": "38.14 1/2 contralateral rotations ne"}, {"measurement": "Net Turns (individual rat)", "setting": "substantia nigra; dose 9.3 nmol", "value": "28.00 1/2 contralateral rotations ne and 20.00 1/2 contralateral rotations ne and 46.00 1/2 contralateral rotations ne and 87.00 1/2 contralateral rotations ne and 30.00 1/2 contralateral rotations ne and 22.00 1/2 contralateral rotations ne and 34.00 1/2 contralateral rotations ne"}, {"measurement": "Net Turns, Average", "setting": "substantia nigra; dose 14.9 nmol, Stan Dev = 27.08", "value": "31.00 1/2 contralateral rotations ne"}, {"measurement": "Net Turns (individual rat)", "setting": "substantia nigra; dose 14.9 nmol", "value": "6.00 1/2 contralateral rotations ne and 58.00 1/2 contralateral rotations ne and 13.00 1/2 contralateral rotations ne and 61.00 1/2 contralateral rotations ne and 7.00 1/2 contralateral rotations ne and 75.00 1/2 contralateral rotations ne and 24.00 1/2 contralateral rotations ne and 4.00 1/2 contralateral rotations ne"}, {"measurement": "Circling behavior compared to saline control", "setting": "substantia nigra; intranigral microinjection 1.5-14.9 nmol, F4,27=3.09, p=0.032", "value": "significant dose-related increases in circling behavior; also recorded: increasing doses of Compound #1 produce marked effects, which are statistically significant"}, {"measurement": "Doses producing circling compared with (+)-pentazocine", "setting": "substantia nigra; intranigral, (+)-pentazocine data published previously", "value": "doses lower than those necessary to produce the effect with (+)-pentazocine"}]}
{"compound": "CN(CCc1ccccc1)[C@@H]1CCCC[C@@H]1N1CCCC1", "note": "(racemic) [compound 9, (±)-cis-N-methyl-N-(2-phenylethyl)-2-(1-pyrrolidinyl)cyclohexylamine]", "values": [{"measurement": "Ki", "setting": "sigma receptors", "value": "113 ± 8", "unit": "nM"}]}
{"compound": "CN(CCc1ccc2ccccc2c1)[C@@H]1CCCC[C@@H]1N1CCCC1", "note": "(racemic) [compound 10, (±)-cis-N-methyl-N-[2-(β-naphthyl)ethyl]-2-(1-pyrrolidinyl)cyclohexylamine]", "values": [{"measurement": "Ki", "setting": "sigma receptors; guinea pig brain P2 membranes, 3 nM [3H]-3-PPP, pH 8.0, 120 min, 25° C., units ± SEM, read-out: Ki", "value": "33 ± 5", "unit": "nM"}]}
{"compound": "CN(Cc1ccc(Cl)c(Cl)c1)[C@@H]1CCCC[C@@H]1N1CCCC1", "note": "(relative stereo) [compound 17, (±)-cis-N-[2-(3,4-dichlorophenyl)methyl]-N-methyl-2-(1-pyrrolidinyl)cyclohexylamine]", "values": [{"measurement": "Ki", "setting": "sigma receptors", "value": "1.2 ± 0.03", "unit": "nM"}]}
{"compound": "CN(CCc1ccc(Cl)c(Cl)c1)[C@H]1CCCC[C@H]1N1CCCC1", "note": "[Compound No. 7, 1S,2R-(-)-cis-N-[2-(3,4-dichlorophenyl)ethyl]-N-methyl-2-(1-pyrrolidinyl)cyclohexylamine]", "values": [{"measurement": "Ki", "setting": "sigma receptor", "value": "30 ± 10", "unit": "nM"}, {"measurement": "Ki", "setting": "sigma receptors", "value": "1.3 ± 0.3", "unit": "nM"}]}
{"compound": "CCCN(CCc1ccc(Cl)c(Cl)c1)[C@@H]1CCCC[C@@H]1N1CCCC1", "note": "[compound 4, (1R,2S)-(-)-cis-N-[2-(3,4-dichlorophenyl)-ethyl]-N-(n-propyl)-2-(1-pyrrolidinyl)cyclohexylamine]", "values": [{"measurement": "Ki", "setting": "sigma receptors", "value": "56 ± 9.9", "unit": "nM"}]}
{"compound": "CCN(CCc1ccc(Cl)c(Cl)c1)[C@@H]1CCCC[C@@H]1N1CCCC1", "note": "[compound 5, (1R,2S)-(-)-cis-N-ethyl-N-[2-(3,4-dichlorophenyl)ethyl]-2-(1-pyrrolidinyl)cyclohexylamine]", "values": [{"measurement": "Ki", "setting": "sigma receptors", "value": "3.5 ± 1", "unit": "nM"}]}
{"compound": "CN(CCc1ccc2c(c1)OCO2)[C@H]1CCCC[C@H]1N1CCCC1", "note": "[compound 11, 1S,2R-(-)-cis-N-methyl-N-[2-(3,4-methylenedioxyphenyl)ethyl]-2-(1-pyrrolidinyl)cyclohexylamine]", "values": [{"measurement": "Ki", "setting": "sigma receptors", "value": "90 ± 20", "unit": "nM"}]}
{"compound": "CN(CCc1ccc2c(c1)OCO2)[C@@H]1CCCC[C@@H]1N1CCCC1", "note": "[compound 12, 1R,2S-(+)-cis-N-methyl-N-[2-(3,4-methylenedioxyphenyl)ethyl]-2-(1-pyrrolidinyl)cyclohexylamine]", "values": [{"measurement": "Ki", "setting": "sigma receptors", "value": "31 ± 0.05", "unit": "nM"}]}
{"compound": "CCN(CCc1ccc(Cl)c(Cl)c1)[C@H]1CCCC[C@H]1N1CCCC1", "note": "[compound 14, 1S,2R-(-)-cis-N-[2-(3,4-dichlorophenyl)ethyl]-N-ethyl-2-(1-pyrrolidinyl)cyclohexylamine]", "values": [{"measurement": "Ki", "setting": "sigma receptors", "value": "3.1 ± 0.55", "unit": "nM"}]}
{"compound": "CCCN(CCc1ccc(Cl)c(Cl)c1)[C@H]1CCCC[C@H]1N1CCCC1", "note": "[compound 16, 1S,2R-(-)-cis-N-[2-(3,4-dichlorophenyl)ethyl]-N-(1-propyl)-2-(1-pyrrolidinyl)cyclohexylamine]", "values": [{"measurement": "Ki", "setting": "sigma receptors", "value": "140 ± 17", "unit": "nM"}]}
{"compound": "CC(C(O)c1ccc(O)cc1)N1CCC(Cc2ccccc2)CC1", "note": "(centres unmarked) [ifenprodil]", "values": [{"measurement": "NMDA receptor antagonism (in words)", "setting": "NMDA receptor", "value": "non-competitive NMDA receptor antagonists"}]}
